Laboratory results from patent US11932598B2, “Polyacyloxymethyl-4,4′-acyloxybiphenyl compound” (HONSHU CHEMICAL INDUSTRY CO., LTD., priority 2018, dated 2024).

What was measured:
[1] = Solvent solubility evaluation test (amount dissolved in 100 g of cyclohexanone); type: physicochemical
Description: <Solvent Solubility Evaluation Test>
The 4,4′-Diacetoxy-3,3′,5,5′-tetra(acetoxymethyl)biphenyl obtained in Example 1 (hereinafter referred to as “Present Compound A”) and 4,4′-di(acetoxy)biphenyl (hereinafter referred to as “Comparative Compound a”) were measured for the amounts dissolved in 100 g of cyclohexanone at 40° C. and 60° C. (hereinunder referred to as “solubility (g)”).

[2] = amount dissolved in 100 g of cyclohexanone at 40° C.
[3] = amount dissolved in 100 g of cyclohexanone at 60° C.

CC(=O)Oc1ccc(-c2ccc(OC(C)=O)cc2)cc1 [Comparative Compound a, 4,4′-di(acetoxy)biphenyl, reference compound]
Solubility [1, 2]: 9.0 g | Solubility [1, 3]: 12.8 g

CC(=O)OCc1cc(-c2cc(COC(C)=O)c(OC(C)=O)c(COC(C)=O)c2)cc(COC(C)=O)c1OC(C)=O [Present Compound A, 4,4′-Diacetoxy-3,3′,5,5′-tetra(acetoxymethyl)biphenyl]
melting point: 116.2 °C | Solubility [1, 2]: 39.4 g | Solubility [1, 3]: 89.8 g
